The values that follow come from PubChem BioAssay AID1963954.

The test system of this experiment is mouse BMDM IL-1b secretion, LPS+ATP, ELISA. The experiment is described as follows: inhibitors of IL-1b release from macrophages, cell-based, mouse BMDMs, ATG16L1 wt and T300A, LPS+ATP (AID 1963954). Particulars: at 40 µM, stronger effect = lower value.

Molecules are shown by their SMILES. Active and inactive are the calls of the source.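 Rule for the calls: active = IL-1b release lowered by over 30% against vehicle-treated cells of the same ATG16L1 genotype; inactive = the rest.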

As to `CS(C)=O`, the normalized IL-1b secretion is, setting by setting: (unstimulated, ATG16L1 T300A) 0.05 (inactive); (unstimulated, ATG16L1 wt) 0 (inactive); (with LPS + ATP, ATG16L1 T300A) 1.39 (inactive); (with LPS + ATP, ATG16L1 wt) 1 (inactive).

For `CCC(C)(C)C(=O)C(=O)N1CCCC[C@H]1C(=O)N[C@H](CCc1ccc(OC)cc1)C(=O)N1[C@@H]2CC[C@H]1CC(Nc1nc(NCCc3sc(N)nc3C)nc(N3CCn4ncnc4C3)n1)C2` (stereo partly specified), the normalized IL-1b secretion runs as follows: (with LPS + ATP, ATG16L1 T300A) 0.39; (with LPS + ATP, ATG16L1 wt) 0.37.
